From patent publication US20110009263A1, “SELECTED SALTS OF 3-(5,6-DIHYDRO-1,4,2-DIOXAZIN-3-YL)-N-[(4,6-DIMETHOXYPYRIMIDIN-2-YL)CARBAMOYL]PYRIDINE-2-SULFONAMIDE, METHOD FOR THE PRODUCTION THEREOF, AND USE THEREOF AS HERBICIDES AND PLANT GROWTH REGULATORS” (priority 2008, published 2011)

Legend:
Type in all cases: in vivo
Viola tricolor = conditions: pre-emergence, application rate of 0.08 kg or less of active substance per hectare, 3 to 4 weeks
Text: (§1) Seeds or rhizome pieces of mono- and dicotyledonous weeds were placed in sandy loam in cardboard pots and covered with soil. The compounds according to the invention, formulated in the form of wettable powders or emulsion concentrates, were then applied to the surface of the covering soil in the form of aqueous suspensions or emulsions at an application rate of 100 to 800 l of water/ha (converted), at various dosages.
(§2) After the treatment, the pots were placed in a greenhouse and kept under good growth conditions for the weeds. The visual scoring of the damage to the plants or the emergence damage was carried out after the emergence of the test plants after a test period of 3 to 4 weeks, by comparison with untreated controls. As shown by the results, the compounds according to the invention have good herbicidal pre-emergence activity against a broad spectrum of weed grasses and broad-leaved weeds.

Stellaria media = conditions: pre-emergence, application rate of 0.08 kg or less of active substance per hectare, 3 to 4 weeks
Text: as §1, §2

Papaver rhoeas = conditions: pre-emergence, application rate of 0.08 kg or less of active substance per hectare, 3 to 4 weeks
Text: as §1, §2

Matricaria inodora = conditions: pre-emergence, application rate of 0.08 kg or less of active substance per hectare, 3 to 4 weeks
Text: as §1, §2

Ambrosia elatior = conditions: for AMBEL (post-emergence herbicidal action score): 2-4 leaf stage, 5 g of a.i./ha, scored after four weeks, 0=no damage, 100=complete control
Procedure: (§3) Seeds or rhizome pieces of monocotyledonous and dicotyledonous weeds were placed in sandy loam in plastic pots (Jiffy pots), covered with soil and cultivated in a greenhouse under good and defined growth conditions, i.e. at a day/night rhythm of 22° C./14° C. At the 2-4 leaf stage, the plants were then treated with an aqueous test solution of various compounds according to the invention at the stated dosage. After four weeks, the tests were scored according to the scheme below:
(§4) 0=no damage; 100=complete control
(§5) The control used was the Na^+ salt of 3-(5,6-dihydro-1,4,2-dioxazin-3-yl)-N-[(4,6-dimethoxypyrimidin-2-yl)carbamoyl]pyridine-2-sulfonamide which is already known from U.S. Pat. No. 5,476,936.

Eleusine indica = conditions: for ELEIN (post-emergence herbicidal action score): 2-4 leaf stage, 5 g of a.i./ha, scored after four weeks, 0=no damage, 100=complete control
Procedure: as §3, §4, §5

“2-(Acetyloxy)-N,N,N-trimethylethanaminium {[3-(5,6-dihydro-1,4,2-dioxazin-3-yl)pyridin-2-yl]sulfonyl}[(4,6-dimethoxypyrimidin-2-yl)carbamoyl]azanide [Compound I-40]” was tested. Which “herbicidal activity against Viola tricolor” value (Viola tricolor) did it give?
Its value is “very good herbicidal activity”.

What about the “herbicidal activity against Stellaria media” value (Stellaria media) of the same molecule?
The value was “very good herbicidal activity”.

What about the “herbicidal activity against Papaver rhoeas” value (Papaver rhoeas) of the same molecule?
Its value is “very good herbicidal activity”.

And the “herbicidal activity against Matricaria inodora” value (Matricaria inodora)?
Its value is “very good herbicidal activity”.

And the “AMBEL (post-emergence herbicidal action score)” value (from here on “AMBEL”) (Ambrosia elatior)?
Its value is 80.

What about the “ELEIN (post-emergence herbicidal action score)” value (“ELEIN” below) (Eleusine indica) of the same molecule?
Its value is 93.

For “2-Chloro-N,N,N-trimethylethanaminium {[3-(5,6-dihydro-1,4,2-dioxazin-3-yl)pyridin-2-yl]sulfonyl}[(4,6-dimethoxypyrimidin-2-yl)carbamoyl]azanide [Compound I-39]”, which “herbicidal activity against Viola tricolor” value (Viola tricolor) is on record?
The value was “very good herbicidal activity”.

What about the “herbicidal activity against Stellaria media” value (Stellaria media) of the same molecule?
Its value is “very good herbicidal activity”.

And the “herbicidal activity against Papaver rhoeas” value (Papaver rhoeas)?
The value was “very good herbicidal activity”.

What about the “herbicidal activity against Matricaria inodora” value (Matricaria inodora) of the same molecule?
The value was “very good herbicidal activity”.

And the “AMBEL” value (Ambrosia elatior)?
Its value is 80.

And the “ELEIN” value (Eleusine indica)?
Its value is 93.

“2-Hydroxy-N-(2-hydroxyethyl)ethanaminium {[3-(5,6-dihydro-1,4,2-dioxazin-3-yl)pyridin-2-yl]sulfonyl}[(4,6-dimethoxypyrimidin-2-yl)carbamoyl]azanide [Compound I-35]” was tested. Which “herbicidal activity against Viola tricolor” value (Viola tricolor) did it give?
Its value is “very good herbicidal activity”.

What about the “herbicidal activity against Stellaria media” value (Stellaria media) of the same molecule?
Its value is “very good herbicidal activity”.

And the “herbicidal activity against Papaver rhoeas” value (Papaver rhoeas)?
The value was “very good herbicidal activity”.

What about the “herbicidal activity against Matricaria inodora” value (Matricaria inodora) of the same molecule?
The value was “very good herbicidal activity”.

What about the “AMBEL” value (Ambrosia elatior) of the same molecule?
The value was 85.

And the “ELEIN” value (Eleusine indica)?
The value was 80.

What does the source list for “2-hydroxy-N,N,N-trimethylethanaminium {[3-(5,6-dihydro-1,4,2-dioxazin-3-yl)pyridin-2-yl]sulfonyl}[(4,6-dimethoxypyrimidin-2-yl)carbamoyl]azanide [Compound I-38]”?
herbicidal activity against Viola tricolor (Viola tricolor): very good herbicidal activity; herbicidal activity against Stellaria media (Stellaria media): very good herbicidal activity; herbicidal activity against Papaver rhoeas (Papaver rhoeas): very good herbicidal activity; herbicidal activity against Matricaria inodora (Matricaria inodora): very good herbicidal activity; AMBEL (post-emergence herbicidal action score) (Ambrosia elatior): 80; ELEIN (post-emergence herbicidal action score) (Eleusine indica): 85

With `COc1cc(OC)nc(NC(=O)[N-]S(=O)(=O)c2ncccc2C2=NOCCO2)n1.[Li+]` [Compound I-1, Lithium {[3-(5,6-dihydro-1,4,2-dioxazin-3-yl)pyridin-2-yl]sulfonyl}[(4,6-dimethoxypyrimidin-2-yl)carbamoyl]azanide] as the molecule, how does the “herbicidal activity against Viola tricolor” value (Viola tricolor) read?
Its value is “very good herbicidal activity”.

What about the “herbicidal activity against Stellaria media” value (Stellaria media) of the same molecule?
The value was “very good herbicidal activity”.

What about the “herbicidal activity against Papaver rhoeas” value (Papaver rhoeas) of the same molecule?
Its value is “very good herbicidal activity”.

What about the “herbicidal activity against Matricaria inodora” value (Matricaria inodora) of the same molecule?
The value was “very good herbicidal activity”.

What about the “AMBEL” value (Ambrosia elatior) of the same molecule?
Its value is 80.

And the “ELEIN” value (Eleusine indica)?
The value was 85.

With `COc1cc(OC)nc(NC(=O)[N-]S(=O)(=O)c2ncccc2C2=NOCCO2)n1.[K+]` [Compound I-2, Potassium {[3-(5,6-dihydro-1,4,2-dioxazin-3-yl)pyridin-2-yl]sulfonyl}[(4,6-dimethoxypyrimidin-2-yl)carbamoyl]azanide] as the molecule, how does the “herbicidal activity against Viola tricolor” value (Viola tricolor) read?
The value was “very good herbicidal activity”.

And the “herbicidal activity against Stellaria media” value (Stellaria media)?
The value was “very good herbicidal activity”.

What about the “herbicidal activity against Papaver rhoeas” value (Papaver rhoeas) of the same molecule?
Its value is “very good herbicidal activity”.

And the “herbicidal activity against Matricaria inodora” value (Matricaria inodora)?
The value was “very good herbicidal activity”.

And the “AMBEL” value (Ambrosia elatior)?
The value was 80.

What about the “ELEIN” value (Eleusine indica) of the same molecule?
Its value is 80.

For `COc1cc(OC)nc(NC(=O)NS(=O)(=O)c2ncccc2C2=NOCCO2)n1.N` [Compound I-5, Ammonium {[3-(5,6-dihydro-1,4,2-dioxazin-3-yl)pyridin-2-yl]sulfonyl}[(4,6-dimethoxypyrimidin-2-yl)carbamoyl]azanide], which “herbicidal activity against Viola tricolor” value (Viola tricolor) is on record?
Its value is “very good herbicidal activity”.

What about the “herbicidal activity against Stellaria media” value (Stellaria media) of the same molecule?
Its value is “very good herbicidal activity”.

What about the “herbicidal activity against Papaver rhoeas” value (Papaver rhoeas) of the same molecule?
The value was “very good herbicidal activity”.

And the “herbicidal activity against Matricaria inodora” value (Matricaria inodora)?
Its value is “very good herbicidal activity”.

What about the “AMBEL” value (Ambrosia elatior) of the same molecule?
The value was 75.

And the “control of Ambrosia elatior” value (Ambrosia elatior; post-emergence)?
Its value is no less than 75%.

What about the “ELEIN” value (Eleusine indica) of the same molecule?
Its value is 80.

For `CC(C)N.COc1cc(OC)nc(NC(=O)NS(=O)(=O)c2ncccc2C2=NOCCO2)n1` [Compound I-14, Propan-2-aminium {[3-(5,6-dihydro-1,4,2-dioxazin-3-yl)pyridin-2-yl]sulfonyl}[(4,6-dimethoxypyrimidin-2-yl)carbamoyl]azanide], which “herbicidal activity against Viola tricolor” value (Viola tricolor) is on record?
The value was “very good herbicidal activity”.

What about the “herbicidal activity against Stellaria media” value (Stellaria media) of the same molecule?
The value was “very good herbicidal activity”.

And the “herbicidal activity against Papaver rhoeas” value (Papaver rhoeas)?
The value was “very good herbicidal activity”.

And the “herbicidal activity against Matricaria inodora” value (Matricaria inodora)?
The value was “very good herbicidal activity”.

And the “AMBEL” value (Ambrosia elatior)?
Its value is 90.

And the “ELEIN” value (Eleusine indica)?
The value was 80.

Which results are given for `COc1cc(OC)nc(NC(=O)NS(=O)(=O)c2ncccc2C2=NOCCO2)n1.[Na]` [control, Na^+ salt of 3-(5,6-dihydro-1,4,2-dioxazin-3-yl)-N-[(4,6-dimethoxypyrimidin-2-yl)carbamoyl]pyridine-2-sulfonamide, reference compound]?
AMBEL (post-emergence herbicidal action score) (Ambrosia elatior): 20; effectiveness against the dicotyledonous weed Ambrosia elatior (in words) (Ambrosia elatior; post-emergence): controlled relatively weakly; ELEIN (post-emergence herbicidal action score) (Eleusine indica): 75; controlling action against the monocotyledonous weed Eleusine indica (in words) (Eleusine indica; post-emergence): good controlling action
